Data taken from patent publication US4824996A, “Phospholipase A2 inhibitors” (American Home Products Corporation, priority 1986, dated 1989).
Read-outs that look alike come from different tables or passages of the source.

Columns and labels:
[1] = target: T1, human platelet PLA2 (Homo sapiens, UniProt P14555); assay: in vitro assay of inhibition of human platelet PLA2 (hydrolysis of [1-14C]oleic acid labelled E. coli membrane phospholipids); format: biochemical
T1 construct: The PLA2 enriched supernatant fluid is removed; from tissue; host or cells: expired human platelets from the blood bank (acid extract, 10,000 g supernatant)
T1 sequence (P14555 21-144): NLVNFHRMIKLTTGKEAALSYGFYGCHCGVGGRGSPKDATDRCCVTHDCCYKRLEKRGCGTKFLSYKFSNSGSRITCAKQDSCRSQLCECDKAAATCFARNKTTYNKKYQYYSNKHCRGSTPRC
Protocol: The ability of the compounds to inhibit the activity of PLA2 enzyme is measured in the following in vitro assay.
(§1) The assay is carried out as follows:
E. coli, cultured to exponential growth, are sedimented for 15 minutes at 10,000 g and resuspended in sterile isotonic saline (1-3 ml). 10-25 μCi [1-^14 C] oleic acid is added to a sterile flask, evaporated by N2 and resolubilized with 0.3 ml 20% fatty acid-free BSA. 75-100 ml of nutrient broth and 1 ml E. coli are then added to each flask and incubated for 2-3 hours at 37° C. [1-^14 C] oleic acid labelled E. coli are then sedimented, suspended in saline and added to fresh nutrient broth and incubated for 1.5 hours at 37° C. to complete [1-^14 C] oleic acid incorporation into the phospholipids. After overnight refrigeration of cultures, E. coli are again sedimented, suspended in saline and autoclaved for 15 minutes at 120° C. E. coli cultures are washed twice with saline (first wash contains 1% BSA) and resuspended in saline. Non-labelled E. coli cultures are also prepared in the same manner. Cell number is determined by measuring the optical density at 550 nm ([…]=1 O.D.). The amount of radioactivity associated with cells is determined by counting a defined volume of cell suspension. The specific activity is subsequently adjusted by adding non-labelled E. coli to yield 2-4×10 cpm per 1×10^10 E. coli. [1-^14 C] arachidonic acid-labelled E. coli are similarly prepared.
Platelet PLA2 Preparation
Expired human platelets from the blood bank are centrifuged for 15 minutes at 200 g to obtain a platelet rich plasma fraction and to remove the red blood cells. Platelets are sedimented for 15 minutes at 2500 g and the plasma is removed before adding cold 0.18N […] (4 ml/unit). Platelets are homogenized, incubated for 1 hour at 4° C., homogenized again and centrifuged for 15 minutes at 10,000 g. The PLA2 enriched supernatant fluid is removed and the amount of protein is determined by the Lowry method. The preparation is divided into various portions and stored at -20° C.
The assay measures the hydrolysis of E. coli membrane phospholipids and the release of free [1-^14 C] oleic acid from the C-2 position of phospholipids by human platelet PLA2. To ice cold 15×100 mm test tubes, the following additions are made: 2,5×10 E. coli (equivalent to 4 nmol phospholipid), 5 mM Ca^++, 100 mM Tris buffer (pH=7.4), 100 μg platelet extract (or an amount to produce 20-30% hydrolysis), drug or vehicle. The final volume is adjusted to 500 μl with water. Mixtures are vortexed and incubated for 30 minutes in a shaking water bath. It should be noted that preliminary experiments are always performed with each new batch of platelets to establish linear hydrolysis of phospholipids with regard to protein concentration and time. The enzyme reaction is stopped by the addition of 3 volumes of CHCl3 to each tube which is vortexed and then centrifuged for 5 minutes at 500 g. The lower CHCl3 /CH3 OH phase is removed and evaporated under N. The dried residue is redissolved in 50 μl CHCl3 :CH3 OH (9:1 v/v), spotted on aluminum-backed chromatographic plates and developed in a solvent system consisting of petroleum ether:diethyl ether:acetic acid (80:20:1). Free fatty acid ([1-^14 C]oleic acid) and [1-^14 C]oleic acid labeled phospholipids are visualized with exposure to iodine vapors. Radioactive areas that cochromatographed with authentic oleic acid and phospholipid standards are cut out and placed in a scintillation vial. One ml CH3 OH and 10 ml Hydrofluor are added to each cut strip and radioactivity is determined by liquid scintillation counting.
The percent hydrolysis is calculated by the following equation: [formula]

[2] = system: lipoxygenase and/or cyclooxygenase pathways of arachidonic acid; assay: in vivo arachidonic acid (AA)-induced murine ear edema test; set-up: species or system Swiss Webster female mice; conditions: 1 mg/ear, 30 minutes prior to AA, ears measured after 1 hour
Text: (§2) The ability of the compounds of the invention to inhibit the lipoxygenase and/or cyclooxygenase pathways of arachidonic acid is examined in the in vivo arachidonic acid (AA)-/12-O-tetradecanoylphorbol acetate (TPA)-induced murine ear edema test.
According to this test, Swiss Webster female mice (Buckshire), approximately 8 weeks old, are placed into plastic boxes in groups of six. Eight groups of mice receive AA topically on the right ear, and another 8 groups receive TPA topically on the right ear. AA and TPA are dissolved in acetone at concentrations of 100 mg/ml ad 100 μg/ml respectively. The phlogistics are applied to the right ear by the means of an automatic pipet. Volumes of 10 μl are applied to the inner and outer surfaces of the ear. Each mouse receives either 2 mg/ear AA or […] TPA. The left ear (control) receives acetone delivered in the same manner. […]
(§3) Measurements are taken with Oditest calipers, 0-10 mm with 0.01 graduations. The right and left ears are measured after 1 hour AA-induced inflammation and 4 hours after TPA-induced inflammation.
(§4) The difference between right and left ear thickness is calculated and the significance is determined by a one way analysis of variance with Dunnett's comparisons to control (P=0.05). Drug effects are expressed as a percent change from control values: [formula]

[3] = system: lipoxygenase and/or cyclooxygenase pathways of arachidonic acid; assay: in vivo 12-O-tetradecanoylphorbol acetate (TPA)-induced murine ear edema test; set-up: species or system Swiss Webster female mice; conditions: 30 minutes after TPA, ears measured after 4 hours; for % Change from Control, TOPICAL TPA: 1 mg/ear; for % Change from Control, ORAL TPA: 100 mg/kg
Text: as §2
According to this test, Swiss Webster female mice (Buckshire), approximately 8 weeks old, are placed into plastic boxes in groups of six. Eight groups of mice receive AA topically on the right ear, and another 8 groups receive TPA topically on the right ear. AA and TPA are dissolved in acetone at concentrations of 100 mg/ml ad 100 μg/ml respectively. The phlogistics are applied to the right ear by the means of an automatic pipet. Volumes of 10 μl are applied to the inner and outer surfaces of the ear. Each mouse receives either 2 mg/ear AA or 4 μg/ear TPA. The left ear (control) receives acetone delivered in the same manner. Oral and topical dosing regimens are as follows: (1) drugs are given 30 minutes prior to AA treatment, and (2) drugs are given 30 minutes after treatment with TPA.
as §3, §4

[4] = system: synthesis of arachidonic acid by murine peritoneal macrophages; assay: inhibition of arachidonic acid (AA) synthesis by murine peritoneal macrophages; format: cell-based, CD-1 mice; conditions: compounds at 10 μm (so in the source)
Protocol: (§5) The ability of the compounds of the invention to inhibit both leukotriene and prostaglandin synthesis is examined in an assay which measures the ability of the compounds of the invention to inhibit the synthesis of arachidonic acid, PGE2 and LTC4 by murine peritoneal macrophages.
as §1
(§6) Macrophages are removed from the peritoneal cavity of 55-57 day old CD-1 mice (killed by CO2 asphyxiation) by peritoneal lavage and centrifuged at 400×g for ten minutes. The cells are resuspended in Medium 199 and 4×10^6 cells are allowed to adhere on 35×10 mm Petri dishes for 1.5 hours at 37° C. in an atmosphere of 95% air and 5% CO2. The cell monolayers are washed and incubated overnight in Medium 199 supplemented with 10% heat inactivated bovin serum containing 1 μCi[^14 C]-arachidonic acid, or in the absence of ^14 C-arachidonic acid when the supernatant is to be assayed by radioimmunoassay (RIA). The labeled cells are then washed and incubated at 37° C. for 2 hours in Medium 199 with the prostaglandin stimuli, zymosan, or 12-o-tetradecanoyl-phorbol-13-acetate (TPA) and in the presence or absence of test compounds. Following incubation, the supernatant is removed and subjected to radioimmunoassay in order to determine the percent inhibition of arachidonic acid, prostaglandin E2 and leukotriene C4 by the test compounds.

[5] = system: synthesis of PGE2 by murine peritoneal macrophages; assay: inhibition of PGE2 synthesis by murine peritoneal macrophages; format: cell-based, CD-1 mice; conditions: compounds at 10 μm (so in the source)
Protocol: as §5, §1, §6

[6] = system: synthesis of LTC4 by murine peritoneal macrophages; assay: inhibition of LTC4 synthesis by murine peritoneal macrophages; format: cell-based, CD-1 mice; conditions: compounds at 10 μm (so in the source)
Protocol: as §5, §1, §6

[7] = compounds of the invention, Table 1, read-out: IC50 (inhibition of PLA2)

Molecule | inhibition at 100 µM [1] [%] | IC50 [1, 7] [µM] | % Change from Control, TOPICAL TPA [3] [%] | Mean % Inhibition ± S.E., AA [4] [%] | Mean % Inhibition ± S.E., PGE2 [5] [%] | Mean % Inhibition ± S.E., LTC4 [6] [%] | also measured
CCCCCCCCCCCCNC(=O)OCCCCCCN(C)C [Example 1, Dodecylcarbamic acid 6-(dimethylamino)hexyl ester] | 100 | – | – | – | – | – | –
CCCCCCCCCCCCCCCCNC(=O)OCCCCCCN(C)C [Example 2, Hexadecylcarbamic acid 6-(dimethylamino)hexyl ester] | 100 | 30 | -42 | 36.92 ± 6.29 | 81.18 ± 2.06 | 81.00 ± 1.79 | % Change from Control, TOPICAL AA [2]: -29%
CCCCCCCCCCCCCCCCNC(=O)OCCCN(C)C [Example 3, Hexadecylcarbamic acid 3-(dimethylamino)propyl ester] | 100 | – | – | – | – | – | –
CCCCCCCCCCCCCCC(=O)NCCCN(C)C [Example 4, N-[3-(dimethylamino)propyl]pentadecanamide] | 100 | 6.8 | -48 | 34.12 ± 5.58 | 48.62 ± 9.32 | 91.95 ± 2.57 | % Change from Control, ORAL TPA [3]: -60%
CCCCCCNC(=O)OCCCCCCN(C)C [Example 5, Hexylcarbamic acid 6-(dimethylamino)hexyl ester] | 11 | – | – | – | – | – | –
Gold Sodium Thiomalate [reference compound] | – | – | – | – | – | – | IC50 ([1]; standard drugs, read-out: Inhibition of PLA2 Activity IC50): 43 µM

Further lines, with some results ahead:

inhibition at 100 µM [1] [%] | IC50 [1, 7] [µM] | Molecule | % Change from Control, TOPICAL TPA [3] [%] | Mean % Inhibition ± S.E., AA [4] [%] | Mean % Inhibition ± S.E., PGE2 [5] [%] | Mean % Inhibition ± S.E., LTC4 [6] [%] | also measured
100 | – | CCCCCCCCCCCCCCCCNC(=O)NCCCN(C)C [Example 6, N-[3-(dimethylamino)propyl]-N'-hexadecylurea] | – | – | – | – | –
94.4 | – | CCCCCCCCCCCCCCCCS(=O)(=O)NCCCCCCCN(CC)CC [Example 7] | – | – | – | – | –
55.9 | – | CCCCCCCCCCCCCC(=O)NN(C)C [Example 8, Tetradecanoic acid 2,2-dimethylhydrazide] | – | – | – | – | –
100 | 8.5 | CCCCCCCCCCCCCC(=O)N1CC(C)NC(C)C1 (stereo not shown) [Example 9, 3,5-Dimethyl-1-(1-oxotetradecyl)piperazine] | -55 | 50.42 ± 2.50 | 73.50 ± 8.20 | 82.15 ± 2.48 | % Change from Control, ORAL TPA [3]: -25%
